# Experimental data published in US20030181436A1, “Treatment for AIDS, HIV, and other related diseases and compounds for use therewith” (priority 2001, published 2003).
# Tests used:
# Type in all cases: cell-based
# [1] = system: HIV-1 attachment to HeLa CD4 LTR B-gal cells; experiment: Inhibition of attachment assay; details: for IC50: attachment assay
# Experimental: (§1) The attachment assay was performed with the HeLa CD4 LTR B-gal cells available from the AIDS Research and Reference Reagent Repository. […] HeLa CD4 LTR B-gal cells express cell surface CD4 and contain an LTR B-galactosidase reporter construct. Upon infection either the Tat protein incorporated into the virion or new Tat produced following virus integration and transcription trans-activate the LTR B-gal reporter, leading to expression of the B-galactosidase enzyme. HeLa CD4 LTR B-gal cells are routinely cultured with the required selection antibiotics and scrended for mycoplasma contamination. Twenty-four h prior to initiation of the assay cells were trypsinized, counted and 1×10^4 cells placed in a 0.2 cm well in media without selection antibiotics. Media was removed and compound media placed on the cells and incubated for 15 to 30 min at 37° C. A known titer of virus was then added to the wells and the incubation continued for 1 h. At the end of the incubation the wells were washed 6 times with media and the culture continued for 48 h. At 48 h the wells were washed one time with PBS and B-galactosidase enzyme expression determined by chemiluminescence per manufacturers instructions (Tropix Gal-screen TM, Tropix, Bedford, Mass.). Compound toxicity was monitored on sister plates using MTS dye reduction. (See Tables 14 through 16 and FIGS. 21 and 22).
# HeLa CD4 LTR B-gal cells = experiment: Attachment assay, toxicity on sister plates by MTS; details: for TC50: attachment assay
# Experimental: as §1, with “reduction.” for “reduction. (See Tables 14 through 16 and FIGS. 21 and 22).”
# [2] = system: SK-1 strain of HIV in CEM-SS cells; experiment: Chronically infected CEM/SK-1 cell assay, RT values
# Experimental: Reverse transcriptase activity was measured in cell-free supernatants. Tritiated thymidine triphosphate (NEN) (TTP) was resuspended in distilled H2O at 5 Ci/mL. Poly rA and oligo dT were prepared as a stock solution which was kept at −20° C. The RT reaction buffer was prepared fresh on a daily basis and consists of 125 μL 1.0 M EGTA, 125 μL dH2O, 110 μL 10% SDS, 50 μL 1.0 M Tris (pH 7.4), 50 μL, 1.0 M DTT, and 40 μL 1.0 M MgCl2. These three solutions were mixed together in a ratio of 2 parts TTP, 1 part poly rA:oligo dT, and 1 part reaction buffer. Ten microliters of this reaction mixture was placed in a round bottom microtiter plate and 15 μL of virus containing supernatant was added and mixed. The plate was incubated at 37° C. in a water bath with a solid support to prevent submersion of the plate and incubated for 60 minutes. Following reaction, the reaction volume was spotted onto pieces of DE81 paper, washed 5 times for 5 minutes each in a 5% sodium phosphate buffer, 2 times for 1 minute each in distilled water, 2 times for 1 minute each in 70% ethanol, and then dried. Opti-Fluor O was added to each sample and incorporated radioactivity was quantitated utilizing a Wallac 1450 Microbetaplus liquid scintillation counter.
# (§2) The chronically infected CEM cells were cultured and the assay performed in RPMI 1640 supplemental with 10% Fetal Bovine Serum (heat inactivated), 2 mM L-glutamine, 100 U/mL penicillin, […] and 10 ug/mL gentamycin. On day 3 cell-free supernatants were collected and cell viability measured by MTS dye reduction. (See Table 13 and FIG. 20).
# [3] = system: CEM-SS cells chronically infected with SK-1; experiment: Chronically infected CEM/SK-1 cell assay, cell viability by MTS
# Experimental: At assay termination the assay plates were stained with the soluble tetrazolium-based dye MTS (CellTiter® Reagent, Promega) to determined cell viability and quantify compound toxicity. […] At termination of the assay 20 μL of MTS reagent was added per well. The wells were incubated for 4 h at 37° C., 5% CO2. Adhesive plate scalers were used in place of the lids, the sealed plate was inverted several times to mix the soluble formazan product and the plate was read spectrophotometrically at 490 nm with a 650 nm reference wavelength on a Molecular Devices Vmax plate reader.
# as §2, with “reduction.” for “reduction. (See Table 13 and FIG. 20).”
substance,measurement,setting,value
Zinc Iodiscorbate [Compound Z],efficacy in HeLa CD4 LTR β-gal attachment assay,[1],inactive
same,% VC,[1]; 0.32 μG/Ml,90.2%
same,% VC,[1]; 1 μG/Ml,94.8%
same,% VC,[1]; 3.2 μG/Ml,74.5%
same,% VC,[1]; 10 μG/Ml,62.4%
same,% VC,[1]; 32 μG/Ml,54.4%
same,% VC,[1]; 100 μG/Ml,66.8%
same,IC50,[1],>100 µg/mL
same,IC50,[1]; listed as COMPOUND Z,IC50 (μG/mL) = >100 μg/mL
same,TOXICITY VALUES (Colt Titer) MEAN,HeLa CD4 LTR B-gal cells; 0.32 μG/Ml,0.989 O. D.
same,TOXICITY VALUES (Colt Titer) MEAN,HeLa CD4 LTR B-gal cells; 1 μG/Ml,0.989 O. D.
same,TOXICITY VALUES (Colt Titer) MEAN,HeLa CD4 LTR B-gal cells; 3.2 μG/Ml,0.989 O. D.
same,TOXICITY VALUES (Colt Titer) MEAN,HeLa CD4 LTR B-gal cells; 10 μG/Ml,0.989 O. D.
same,TOXICITY VALUES (Colt Titer) MEAN,HeLa CD4 LTR B-gal cells; 32 μG/Ml,0.989 O. D.
same,TOXICITY VALUES (Colt Titer) MEAN,HeLa CD4 LTR B-gal cells; 100 μG/Ml,0.989 O. D.
same,TC50,HeLa CD4 LTR B-gal cells,greater than 100 μg/mL
same,TC50,HeLa CD4 LTR B-gal cells; listed as COMPOUND Z,TC50 (μG/mL) + >100 μg/mL
same,% VC,[2]; 0.625 μG/Ml,95.1%
same,RT VALUES (cpm) MEAN,[2]; 0.625 μG/Ml,9997.0 cpm
same,% VC,[2]; 2 μG/Ml,96.8%
same,RT VALUES (cpm) MEAN,[2]; 2 μG/Ml,10178.7 cpm
same,% VC,[2]; 6.25 μG/Ml,16.8%
same,RT VALUES (cpm) MEAN,[2]; 6.25 μG/Ml,1761.0 cpm
same,% VC,[2]; 20 μG/Ml,1.2%
same,RT VALUES (cpm) MEAN,[2]; 20 μG/Ml,128.0 cpm
same,% VC,[2]; 62.5 μG/Ml,1.0%
same,RT VALUES (cpm) MEAN,[2]; 62.5 μG/Ml,104.0 cpm
same,% VC,[2]; 200 μG/Ml,0.5%
same,RT VALUES (cpm) MEAN,[2]; 200 μG/Ml,48.0 cpm
same,IC50,[2]; CEMSK1 chronic infection,IC50 (μG/Ml) = 4.49
same,TOXICITY VALUES (MTS) MEAN,[3]; 0.625 μG/Ml,1.757 O. D.
same,TOXICITY VALUES (MTS) MEAN,[3]; 2 μG/Ml,1.655 O. D.
same,% CC,[3]; 6.25 μG/Ml,35.8%
same,TOXICITY VALUES (MTS) MEAN,[3]; 6.25 μG/Ml,0.631 O. D.
same,% CC,[3]; 20 μG/Ml,31.4%
same,TOXICITY VALUES (MTS) MEAN,[3]; 20 μG/Ml,0.553 O. D.
same,% CC,[3]; 62.5 μG/Ml,17.1%
same,TOXICITY VALUES (MTS) MEAN,[3]; 62.5 μG/Ml,0.301 O. D.
same,% CC,[3]; 200 μG/Ml,0.6%
same,TOXICITY VALUES (MTS) MEAN,[3]; 200 μG/Ml,0.011 O. D.
same,TC50,[3]; CEMSK1 chronic infection,ITC50 (ug/ml) = 5.22
